Organism: Rattus norvegicus
Assay: DrugMatrix - Regimen: Daily Repeat
Type: toxicity, organism-based, Sprague-Dawley
Set-up: regimen Daily Repeat, gender Male, age 6-8 weeks
Details: in vivo, po, route oral GAVAGE, vehicle 100 % WATER; for ABSOLUTE BASOPHIL / ABSOLUTE EOSINOPHIL / ABSOLUTE LYMPHOCYTE / ABSOLUTE MONOCYTE / ABSOLUTE SEGMENTED NEUTROPHIL / BASOPHIL / EOSINOPHIL / ERYTHROCYTE COUNT / HEMATOCRIT / HEMOGLOBIN / LEUKOCYTE COUNT / LYMPHOCYTE / MEAN CORPUSCULAR HEMOGLOBIN / MEAN CORPUSCULAR HEMOGLOBIN CONCENTRATION / MEAN CORPUSCULAR VOLUME / MONOCYTE / NEUTROPHIL / NUCLEATED RED BLOOD CELLS / PLATELET COUNT: tissue Blood; for ALANINE AMINOTRANSFERASE / ALBUMIN / ALKALINE PHOSPHATASE / ASPARTATE AMINOTRANSFERASE / BLOOD UREA NITROGEN / CARBON DIOXIDE / CHLORIDE / CHOLESTEROL / CREATINE PHOSPHOKINASE / CREATININE / GLUCOSE / LACTATE DEHYDROGENASE / LIPASE / PHOSPHORUS / POTASSIUM / SODIUM / TOTAL BILIRUBIN / TOTAL PROTEIN / URIC ACID: tissue Plasma
[1] = 0 mg/kg, 72 h, dose level Control, time 3 day
[2] = 0 mg/kg, 120 h, dose level Control, time 5 day
[3] = 15 mg/kg, 72 h, dose level Low, time 3 day
[4] = 15 mg/kg, 120 h, dose level Low, time 5 day

COC(=O)C1=C(C)NC(C)=C(C(=O)OCC(C)C)C1c1ccccc1[N+](=O)[O-] (configuration not stated) [NISOLDIPINE]
ABSOLUTE BASOPHIL [1]: 0 CELLS/uL | ABSOLUTE EOSINOPHIL [1]: 0 CELLS/uL | ABSOLUTE LYMPHOCYTE [1]: 7802.17 CELLS/uL | ABSOLUTE MONOCYTE [1]: 13.5 CELLS/uL | ABSOLUTE SEGMENTED NEUTROPHIL [1]: 617.67 CELLS/uL | BASOPHIL [1]: 0% | EOSINOPHIL [1]: 0% | ERYTHROCYTE COUNT [1]: 5.35 x10E6/uL | HEMATOCRIT [1]: 33.02% | HEMOGLOBIN [1]: 12.88 G/DL | LEUKOCYTE COUNT [1]: 8.43 x10E3/uL | LYMPHOCYTE [1]: 92.67% | MEAN CORPUSCULAR HEMOGLOBIN [1]: 24.12 pg | MEAN CORPUSCULAR HEMOGLOBIN CONCENTRATION [1]: 39.03 G/DL | MEAN CORPUSCULAR VOLUME [1]: 61.8 fL | MONOCYTE [1]: 0.17% | NEUTROPHIL [1]: 7.17% | NUCLEATED RED BLOOD CELLS [1]: 0 /100WBC | PLATELET COUNT [1]: 1124.83 x10E3/uL | ALANINE AMINOTRANSFERASE [1]: 54.17 u/L | ALBUMIN [1]: 4.07 G/DL | ALKALINE PHOSPHATASE [1]: 383.83 u/L | ASPARTATE AMINOTRANSFERASE [1]: 82.17 u/L | BLOOD UREA NITROGEN [1]: 13.67 mg/dL | CARBON DIOXIDE [1]: 31 mmol/L | CHLORIDE [1]: 100.83 MEQ/L | CHOLESTEROL [1]: 65.17 mg/dL | CREATINE PHOSPHOKINASE [1]: 228.33 u/L | CREATININE [1]: 0.12 mg/dL | GLUCOSE [1]: 148 mg/dL | LACTATE DEHYDROGENASE [1]: 97.83 u/L | LIPASE [1]: 9.17 u/L | PHOSPHORUS [1]: 9.75 mg/dL | POTASSIUM [1]: 5.85 MEQ/L | SODIUM [1]: 147.02 MEQ/L | TOTAL BILIRUBIN [1]: 0.18 mg/dL | TOTAL PROTEIN [1]: 6.1 G/DL | URIC ACID [1]: 0.5 mg/dL | ABSOLUTE BASOPHIL [2]: 0 CELLS/uL | ABSOLUTE EOSINOPHIL [2]: 0 CELLS/uL | ABSOLUTE LYMPHOCYTE [2]: 10538 CELLS/uL | ABSOLUTE MONOCYTE [2]: 15.83 CELLS/uL | ABSOLUTE SEGMENTED NEUTROPHIL [2]: 762.83 CELLS/uL | BASOPHIL [2]: 0% | EOSINOPHIL [2]: 0% | ERYTHROCYTE COUNT [2]: 5.49 x10E6/uL | HEMATOCRIT [2]: 34.63% | HEMOGLOBIN [2]: 13.72 G/DL | LEUKOCYTE COUNT [2]: 11.32 x10E3/uL | LYMPHOCYTE [2]: 92.67% | MEAN CORPUSCULAR HEMOGLOBIN [2]: 24.97 pg | MEAN CORPUSCULAR HEMOGLOBIN CONCENTRATION [2]: 39.57 G/DL | MEAN CORPUSCULAR VOLUME [2]: 63.05 fL | MONOCYTE [2]: 0.17% | NEUTROPHIL [2]: 7.17% | NUCLEATED RED BLOOD CELLS [2]: 0.17 /100WBC | PLATELET COUNT [2]: 802 x10E3/uL | ALANINE AMINOTRANSFERASE [2]: 50.5 u/L | ALBUMIN [2]: 4.07 G/DL | ALKALINE PHOSPHATASE [2]: 336.83 u/L | ASPARTATE AMINOTRANSFERASE [2]: 81 u/L | BLOOD UREA NITROGEN [2]: 14.17 mg/dL | CARBON DIOXIDE [2]: 32 mmol/L | CHLORIDE [2]: 98.33 MEQ/L | CHOLESTEROL [2]: 69.17 mg/dL | CREATINE PHOSPHOKINASE [2]: 253.33 u/L | CREATININE [2]: 0.13 mg/dL | GLUCOSE [2]: 153.67 mg/dL | LACTATE DEHYDROGENASE [2]: 157 u/L | LIPASE [2]: 9 u/L | PHOSPHORUS [2]: 10.78 mg/dL | POTASSIUM [2]: 6.11 MEQ/L | SODIUM [2]: 144.57 MEQ/L | TOTAL BILIRUBIN [2]: 0.15 mg/dL | TOTAL PROTEIN [2]: 6.05 G/DL | URIC ACID [2]: 0.73 mg/dL | ABSOLUTE BASOPHIL [3]: 0 CELLS/uL | ABSOLUTE EOSINOPHIL [3]: 0 CELLS/uL | ABSOLUTE LYMPHOCYTE [3]: 6241.33 CELLS/uL | ABSOLUTE MONOCYTE [3]: 67 CELLS/uL | ABSOLUTE SEGMENTED NEUTROPHIL [3]: 425 CELLS/uL | BASOPHIL [3]: 0% | EOSINOPHIL [3]: 0% | ERYTHROCYTE COUNT [3]: 5.19 x10E6/uL | HEMATOCRIT [3]: 32.73% | HEMOGLOBIN [3]: 12.7 G/DL | LEUKOCYTE COUNT [3]: 6.73 x10E3/uL | LYMPHOCYTE [3]: 92.67% | MEAN CORPUSCULAR HEMOGLOBIN [3]: 24.5 pg | MEAN CORPUSCULAR HEMOGLOBIN CONCENTRATION [3]: 38.83 G/DL | MEAN CORPUSCULAR VOLUME [3]: 63.1 fL | MONOCYTE [3]: 1% | NEUTROPHIL [3]: 6.33% | NUCLEATED RED BLOOD CELLS [3]: 0 /100WBC | PLATELET COUNT [3]: 1002.33 x10E3/uL | ALANINE AMINOTRANSFERASE [3]: 56 u/L | ALBUMIN [3]: 4.03 G/DL | ALKALINE PHOSPHATASE [3]: 297.33 u/L | ASPARTATE AMINOTRANSFERASE [3]: 80.67 u/L | BLOOD UREA NITROGEN [3]: 11.67 mg/dL | CARBON DIOXIDE [3]: 30.67 mmol/L | CHLORIDE [3]: 100 MEQ/L | CHOLESTEROL [3]: 89.67 mg/dL | CREATINE PHOSPHOKINASE [3]: 318.67 u/L | CREATININE [3]: 0.11 mg/dL | GLUCOSE [3]: 147.67 mg/dL | LACTATE DEHYDROGENASE [3]: 95.33 u/L | LIPASE [3]: 13 u/L | PHOSPHORUS [3]: 9.1 mg/dL | POTASSIUM [3]: 5.7 MEQ/L | SODIUM [3]: 145.35 MEQ/L | TOTAL BILIRUBIN [3]: 0.1 mg/dL | TOTAL PROTEIN [3]: 5.77 G/DL | URIC ACID [3]: 0.47 mg/dL | ABSOLUTE BASOPHIL [4]: 0 CELLS/uL | ABSOLUTE EOSINOPHIL [4]: 0 CELLS/uL | ABSOLUTE LYMPHOCYTE [4]: 9912 CELLS/uL | ABSOLUTE MONOCYTE [4]: 68 CELLS/uL | ABSOLUTE SEGMENTED NEUTROPHIL [4]: 453.33 CELLS/uL | BASOPHIL [4]: 0% | EOSINOPHIL [4]: 0% | ERYTHROCYTE COUNT [4]: 5.6 x10E6/uL | HEMATOCRIT [4]: 34.7% | HEMOGLOBIN [4]: 13.63 G/DL | LEUKOCYTE COUNT [4]: 10.43 x10E3/uL | LYMPHOCYTE [4]: 95.33% | MEAN CORPUSCULAR HEMOGLOBIN [4]: 24.43 pg | MEAN CORPUSCULAR HEMOGLOBIN CONCENTRATION [4]: 39.3 G/DL | MEAN CORPUSCULAR VOLUME [4]: 62.07 fL | MONOCYTE [4]: 0.67% | NEUTROPHIL [4]: 4% | NUCLEATED RED BLOOD CELLS [4]: 0 /100WBC | PLATELET COUNT [4]: 1086 x10E3/uL | ALANINE AMINOTRANSFERASE [4]: 51 u/L | ALBUMIN [4]: 4.13 G/DL | ALKALINE PHOSPHATASE [4]: 346 u/L | ASPARTATE AMINOTRANSFERASE [4]: 74 u/L | BLOOD UREA NITROGEN [4]: 13.67 mg/dL | CARBON DIOXIDE [4]: 36.67 mmol/L | CHLORIDE [4]: 98.67 MEQ/L | CHOLESTEROL [4]: 67.33 mg/dL | CREATINE PHOSPHOKINASE [4]: 223.67 u/L | CREATININE [4]: 0.13 mg/dL | GLUCOSE [4]: 139.67 mg/dL | LACTATE DEHYDROGENASE [4]: 96.33 u/L | LIPASE [4]: 9 u/L | PHOSPHORUS [4]: 9.5 mg/dL | POTASSIUM [4]: 6.07 MEQ/L | SODIUM [4]: 144.53 MEQ/L | TOTAL BILIRUBIN [4]: 0.17 mg/dL | TOTAL PROTEIN [4]: 6.17 G/DL | URIC ACID [4]: 0.67 mg/dL

Reference: ChEMBL document CHEMBL3885881, “DrugMatrix”
